Drawing on paper PMC6982974, “Structure-Based Virtual Screening and Biological Evaluation of Peptide Inhibitors for Polo-Box Domain” (Molecules, 2019), this text covers IC50 and inhibition for 10 molecules.

Read-outs that look alike come from different tables or passages of the source. Non-standard residues stand in square brackets, D forms with d. Residues, ends and D or L forms follow the SMILES beside them. Phe(3,4-Cl2) = N[C@@H](Cc1ccc(Cl)c(Cl)c1)C(=O)O; pT = C[C@@H](OP(=O)(O)O)[C@H](N)C(=O)O

Common to all, as to type: binding
The target in one assay is T1, human PLK1-PBD protein (Homo sapiens, UniProt P53350).
T1 construct: a C-terminal polo-box domain (PBD)
T1 sequence (P53350 326-603 limits assumed): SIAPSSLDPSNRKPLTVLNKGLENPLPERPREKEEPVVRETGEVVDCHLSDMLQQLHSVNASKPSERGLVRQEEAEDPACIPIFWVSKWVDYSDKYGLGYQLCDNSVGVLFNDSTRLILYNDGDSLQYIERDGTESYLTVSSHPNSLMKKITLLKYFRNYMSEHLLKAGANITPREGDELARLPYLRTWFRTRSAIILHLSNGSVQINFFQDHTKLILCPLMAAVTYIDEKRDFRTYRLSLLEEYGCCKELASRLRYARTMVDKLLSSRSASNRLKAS
In words: Competitive fluorescence polarization (FP) assay, PLK1-PBD inhibition. On the procedure:
(§1) To test the binding ability of 9 peptides to the PLK1-PBD, a competitive fluorescence polarization (FP) assay was performed (Table S1).
(§2) A total of 20 μL of 200 nM human PLK1-PBD protein in phosphate-buffered saline (PBS, pH 7.4) was mixed with 20 μL of tested peptides at various concentrations in each well of a 384-well black bottom plate (Corning 3575, Thermo Scientific, Massachusetts, USA). Then, 20 μL of 30 nM probe was added to each well. The plate was shaken at room temperature for 40 min. The polarization values in millipolarization units (mP) were measured at excitation/emission wave lengths of 485/535 nm using a SpectraMax Paradigm Multi-Mode Detection Platform (Molecular-Devices, Tokyo, Japan). The percentage inhibition of the tested peptides at each concentration was defined as […] 1 − (Pobs − Pmin)/(Pmax − Pmin). Pmax is the polarization of the wells containing PLK1-PBD and the probe, Pmin is the polarization of the free probe, and the Pobs is the polarization for the wells containing the peptides with a series of concentrations. According to a previously reported method, FITC-GPMQSpTPLNG-OH was used as the fluorescein-labeled peptide, which was dissolved in dimethyl sulfoxide (DMSO) and the final optimized concentration was set at 20 nM. Phosphopeptides used for competition binding assays were dissolved in assay buffer. The buffer is made up of 50 mM NaCl, 10 mM Tris (pH 8.0), 1 mM EDTA and 0.1% Nonidet P-40. We further performed the sensitivity by synthesizing two fluorescent probes, FITC-GPMQTSpTPKNG-OH for PLK2-PBD and FITC-GPLATSpTPKNG-OH for PLK3-PBD, respectively. All experiments were performed in triplicate and the data were analyzed using GraphPad Prism 6.0 software (GraphPad Software, San Diego, CA, USA).
On the technique in general: In fluorescence polarisation assays a small probe gives low polarisation when free and higher when bound to something large.

In the next assay the target is T2, PLK2-PBD (Homo sapiens, UniProt Q9NYY3).
T2 sequence (Q9NYY3 355-685 limits assumed): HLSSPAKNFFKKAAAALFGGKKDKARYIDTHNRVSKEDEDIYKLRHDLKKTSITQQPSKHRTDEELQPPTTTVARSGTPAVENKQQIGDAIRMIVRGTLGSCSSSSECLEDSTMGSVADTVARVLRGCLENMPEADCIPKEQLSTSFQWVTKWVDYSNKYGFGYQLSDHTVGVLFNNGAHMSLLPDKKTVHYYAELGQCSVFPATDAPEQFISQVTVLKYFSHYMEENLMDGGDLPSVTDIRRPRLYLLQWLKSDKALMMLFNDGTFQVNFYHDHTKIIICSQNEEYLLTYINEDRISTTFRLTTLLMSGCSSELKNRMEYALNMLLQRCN
Description: Competitive fluorescence polarization (FP) assay, selectivity vs PLK2-PBD. The procedure:
as §1
as §2, with “According to a previously reported method, FITC-GPMQSpTPLNG-OH was used as the fluorescein-labeled peptide, which was dissolved in dimethyl sulfoxide (DMSO) and the final optimized concentration was set at 20 nM. Phosphopeptides used for competition binding assays were dissolved in assay buffer. The buffer is made up of 50 mM NaCl, 10 mM Tris (pH 8.0), 1 mM EDTA and 0.1% Nonidet P-40. We further performed the sensitivity by synthesizing two fluorescent probes, FITC-GPMQTSpTPKNG-OH for PLK2-PBD and FITC-GPLATSpTPKNG-OH for PLK3-PBD, respectively.” left out

The next assay deals with T3, PLK3-PBD (Homo sapiens, UniProt Q9H4B4).
T3 sequence (Q9H4B4 335-646 limits assumed): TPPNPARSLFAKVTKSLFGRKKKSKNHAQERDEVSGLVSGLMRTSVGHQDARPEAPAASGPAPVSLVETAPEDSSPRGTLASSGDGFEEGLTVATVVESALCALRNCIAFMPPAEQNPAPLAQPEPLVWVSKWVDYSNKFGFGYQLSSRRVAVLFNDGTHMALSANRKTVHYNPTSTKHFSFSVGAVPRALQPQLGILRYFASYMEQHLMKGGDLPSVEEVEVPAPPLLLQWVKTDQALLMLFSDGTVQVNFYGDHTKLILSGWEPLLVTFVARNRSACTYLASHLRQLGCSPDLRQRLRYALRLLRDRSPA
In words: Competitive fluorescence polarization (FP) assay, selectivity vs PLK3-PBD. The procedure: as §1
as §2, with “According to a previously reported method, FITC-GPMQSpTPLNG-OH was used as the fluorescein-labeled peptide, which was dissolved in dimethyl sulfoxide (DMSO) and the final optimized concentration was set at 20 nM. Phosphopeptides used for competition binding assays were dissolved in assay buffer. The buffer is made up of 50 mM NaCl, 10 mM Tris (pH 8.0), 1 mM EDTA and 0.1% Nonidet P-40. We further performed the sensitivity by synthesizing two fluorescent probes, FITC-GPMQTSpTPKNG-OH for PLK2-PBD and FITC-GPLATSpTPKNG-OH for PLK3-PBD, respectively.” left out

Setting [1] is: probe FITC-GPMQSpTPLNG-OH, room temperature 40 min, performed in triplicate, read-out: IC50.
Setting [2] is: at 1 μM inhibitor concentration.

By IC50 is commonly meant the concentration needed to halve the response being measured. Consider `CSCC[C@H](NC(=O)[C@@H]1CCCN1C(=O)CNC(=O)[C@H](C)NC(=O)[C@@H](N)CCSC)C(=O)N[C@@H](CCC(N)=O)C(=O)N[C@@H](CO)C(=O)N[C@H](C(=O)N1CCC[C@H]1C(=O)N[C@@H](CC(C)C)C(=O)N[C@@H](CC(N)=O)C(=O)NCC(=O)N[C@@H](C)C(=O)N[C@@H](CCCCN)C(=O)N[C@@H](CCCCN)C(=O)O)[C@@H](C)OP(=O)(O)O` [Polo b oxtide, reference compound] (H-MAGPMQS[pT]PLNGAKK-OH), for which, at human PLK1-PBD protein (setting [1]), the IC50 is 7.92 ± 1.03 µM.

In the case of `CC(C)C[C@H](NC(=O)[C@@H]1CCCN1C(=O)[C@@H]1CCCN1C(=O)[C@H](CCC(=O)O)NC(=O)[C@@H](N)Cc1ccccc1)C(=O)N[C@@H](Cc1c[nH]cn1)C(=O)N[C@@H](CO)C(=O)N[C@H](C(=O)N[C@@H](C)C(=O)NCC(=O)O)[C@@H](C)OP(=O)(O)O` [Peptide 4] (H-FEPPLHS[pT]AG-OH), the IC50 on human PLK1-PBD protein (setting [1]) stood at 0.16 ± 0.02 µM. Same read-out and setting: as for `CC(C)C[C@H](NC(=O)[C@@H]1CCCN1C(=O)[C@@H]1CCCN1C(=O)[C@H](CCC(N)=O)NC(=O)[C@@H](N)Cc1c[nH]cn1)C(=O)N[C@@H](Cc1c[nH]cn1)C(=O)N[C@@H](CO)C(=O)N[C@H](C(=O)N[C@@H](C)C(=O)O)[C@@H](C)OP(=O)(O)O` [Peptide 9] (H-HQPPLHS[pT]A-OH), the figure is 0.72 ± 0.24 µM; as for `CC[C@H](C)[C@H](NC(=O)[C@H](C)NC(=O)[C@@H](NC(=O)[C@H](CO)NC(=O)[C@H](Cc1c[nH]cn1)NC(=O)[C@H](CC(C)C)NC(=O)[C@@H]1CCCN1C(=O)[C@@H]1CCCN1C(=O)[C@H](CCC(=O)O)NC(=O)[C@@H](N)Cc1ccccc1)[C@@H](C)OP(=O)(O)O)C(=O)O` [Peptide 3] (H-FEPPLHS[pT]AI-OH), 0.29 ± 0.02 µM. On the same count and under the same terms, as for `CC(C)C[C@H](NC(=O)[C@@H]1CCCN1C(=O)[C@@H]1CCCN1C(=O)[C@H](C)NC(=O)[C@@H](N)Cc1c[nH]c2ccccc12)C(=O)N[C@@H](Cc1c[nH]cn1)C(=O)N[C@@H](CO)C(=O)N[C@H](C(=O)N[C@@H](C)C(=O)N[C@@H](CCCCN)C(=O)O)[C@@H](C)OP(=O)(O)O` [Peptide 6] (H-WAPPLHS[pT]AK-OH), the figure is 0.35 ± 0.11 µM; as for `CC[C@H](C)[C@H](NC(=O)[C@H](C)NC(=O)[C@@H](NC(=O)[C@H](CO)NC(=O)[C@H](Cc1c[nH]cn1)NC(=O)[C@H](CC(C)C)NC(=O)[C@@H]1CCCN1C(=O)[C@@H]1CCCN1C(=O)[C@H](CCC(=O)O)NC(=O)[C@@H](N)Cc1ccc(O)cc1)[C@@H](C)OP(=O)(O)O)C(=O)NCC(=O)O` [Peptide 1] (H-YEPPLHS[pT]AIG-OH), 0.32 ± 0.02 µM; as for `CC(C)C[C@H](NC(=O)[C@@H]1CCCN1C(=O)[C@@H]1CCCN1C(=O)[C@H](CCCCN)NC(=O)[C@@H](N)Cc1c[nH]cn1)C(=O)N[C@@H](Cc1c[nH]cn1)C(=O)N[C@@H](CO)C(=O)N[C@H](C(=O)N[C@@H](C)C(=O)O)[C@@H](C)OP(=O)(O)O` [Peptide 8] (H-HKPPLHS[pT]A-OH), 0.61 ± 0.32 µM. As for `CC(C)C[C@H](NC(=O)[C@@H]1CCCN1C(=O)[C@@H]1CCCN1C(=O)[C@H](CCCCN)NC(=O)[C@@H](N)Cc1c[nH]c2ccccc12)C(=O)N[C@@H](Cc1c[nH]cn1)C(=O)N[C@@H](CO)C(=O)N[C@H](C(=O)N[C@@H](C)C(=O)NCC(=O)O)[C@@H](C)OP(=O)(O)O` [Peptide 7] (H-WKPPLHS[pT]AG-OH), the IC50 at human PLK1-PBD protein (setting [1]) worked out at 0.42 ± 0.2 µM.

Consider `CC[C@H](C)[C@H](NC(=O)[C@H](C)NC(=O)[C@@H](NC(=O)[C@H](CO)NC(=O)[C@H](Cc1c[nH]cn1)NC(=O)[C@H](CC(C)C)NC(=O)[C@@H]1CCCN1C(=O)[C@@H]1CCCN1C(=O)[C@H](CC(=O)O)NC(=O)[C@@H](N)Cc1c[nH]c2ccccc12)[C@@H](C)OP(=O)(O)O)C(=O)O` [Peptide 2] (H-WDPPLHS[pT]AI-OH), for which the IC50 at human PLK1-PBD protein (setting [1]) turned out to be 0.19 ± 0.01 µM. Usually inhibition stands for how much of the control response was suppressed. Lower therefore signals a response near the control. As to `CC(C)C[C@H](NC(=O)[C@@H]1CCCN1C(=O)[C@@H]1CCCN1C(=O)[C@H](CC(N)=O)NC(=O)[C@@H](N)Cc1ccc(Cl)c(Cl)c1)C(=O)N[C@@H](Cc1c[nH]cn1)C(=O)N[C@@H](CO)C(=O)N[C@H](C(=O)N[C@@H](C)C(=O)O)[C@@H](C)OP(=O)(O)O` [Peptide 5] (H-[Phe(3,4-Cl2)]NPPLHS[pT]A-OH), the concentration for half-maximal inhibition (IC50) at human PLK1-PBD protein (triplicates, mean ± SD of three data sets, read-out: IC50 PLK1-PBD) was 0.07 µM; at PLK2-PBD (Table S2, probe FITC-GPMQTSpTPKNG-OH, triplicates), > 1 µM; on PLK3-PBD (Table S2, probe FITC-GPLATSpTPKNG-OH, triplicates), > 1 µM. The inhibition at 1 µM on PLK2-PBD (setting [2]) and on PLK3-PBD (setting [2]) was ≤ 10% each time.
